The source of these data is patent publication US20050124665A1, “Pharmaceutical compositions” (priority 2001, published 2005).

The subject of one test is Sendai virus. Description: Effect on the replication of Sendai virus (virus yield by HAU titration in 37RC cells). The class given is cell-based. Particulars: Respirovirus muris, in Primates; at 24 hours after infection; monkey kidney 37RC cells infected with SV (5 HAU/10^5 cells); virus yield in supernatant by HAU titration; read-out: ID50 (the 50% inhibitory dose/concentration). The procedure: Methods: Monkey kidney 37RC cells were grown at 37° C. under the conditions described in Example 6 for T cells. The parainfluenza Sendai virus (SV) was grown in the allantoic cavity of 10-day-old embroynated eggs. Viral titre was expressed in haemagglutinating units (HAU) per ml; haemagglutin titration was done according to standard procedures using human 0 Rh+ erythrocytes, as described in C. Amici et al. (J. Virol. 68: 6890-6899, 1994). Confluent monolayers of 37RC cells were infected with SV virus (5 HAU/10^5 cells) for 1 h at 37° C., and then treated with different concentrations of test compounds. Virus yield at 24 hours after infection was determined in the supernatant of infected cells by HAU titration. The results from representative experiments are shown for CTC-73, 74, 83, 84 and 85 (as identified above) in FIGS. 1a, 2a, 3a, 4a and 5a, respectively.

In a further test the target is T1, HSF1 (Homo sapiens, UniProt Q00613).
T1 sequence (Q00613 1-529): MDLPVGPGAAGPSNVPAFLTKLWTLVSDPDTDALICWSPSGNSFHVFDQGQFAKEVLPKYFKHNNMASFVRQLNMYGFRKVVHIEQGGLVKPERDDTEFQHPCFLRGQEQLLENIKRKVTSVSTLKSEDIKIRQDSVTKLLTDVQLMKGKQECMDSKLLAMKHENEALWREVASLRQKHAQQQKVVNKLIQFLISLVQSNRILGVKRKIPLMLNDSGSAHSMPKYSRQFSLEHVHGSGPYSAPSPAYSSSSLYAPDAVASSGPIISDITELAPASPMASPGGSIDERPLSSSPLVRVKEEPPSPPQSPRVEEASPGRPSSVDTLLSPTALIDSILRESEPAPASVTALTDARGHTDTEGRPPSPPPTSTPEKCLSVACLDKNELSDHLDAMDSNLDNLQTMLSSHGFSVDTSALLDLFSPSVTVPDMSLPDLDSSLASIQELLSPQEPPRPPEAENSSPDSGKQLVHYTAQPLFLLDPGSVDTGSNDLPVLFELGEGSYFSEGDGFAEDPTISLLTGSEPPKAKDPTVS
The settings on record: cited from earlier work.

In a further test the test system is NF-κB. Particulars: at the same concentration (125-500 μM); cited from earlier work.

As to `CCCC/C=C\CC1CC=CC1=O` (stereo not drawn) [CTC-74, ((Z)-5-Hept-2-enyl)-cyclopent-2-enone], the IC50 in the test on Sendai virus worked out at 1 µM. The same measure, in the same setting: as for `CCCCCC/C=C\CC1CC=CC1=O` (stereo not drawn) [CTC-83, ((Z)-5-Non-2-enyl)-cyclopent-2-enone], the figure is 10 µM; as for `CCCCCCCCC/C=C\CC1CC=CC1=O` (stereo not drawn) [CTC-84, ((Z)-5-Dodec-2-enyl)-cyclopent-2-enone], 7 µM. Still for that read-out and setting: as for `CCCCCCCCC/C=C/CC1CC=CC1=O` (stereo not drawn) [CTC-85, ((E)-5-Dodec-2-enyl)-cyclopent-2-enone], the figure is 10 µM. `O=C1C=CCC1` [cyclopent-2-en-1-one]: the “Concentration able to activate HSF1 and trigger synthesis of HSP70” value on HSF1 is 125 to 500 µM. In addition, the “Block of NF-κB activation” value in the test on NF-κB is on record as “able to block NF-κB activation”.
